Where two headings read alike, the source gives them in different places.
Assays:
GST-tagged PTPN2 protein = molecular target: T1, GST-tagged PTPN2 protein (Homo sapiens, UniProt P17706); assay: Primary assay of PTPN2 enzymatic activity inhibition (DiFMUP fluorescence); type: biochemical; details: DiFMUP substrate 2 μM, 60 min at RT
T1 construct: purchased ActiveMotif 31592
Description: Compound activity was determined using GST-tagged PTPN2 protein (Cat #31592, ActiveMotif) (SEQ ID NO: 1) in an in vitro enzymatic reaction. The enzymatic reaction was carried out in assay buffer (50 mM HEPES Na salt pH 7.2-7.4, 2 mM EDTA, 100 mM NaCl, 52 ng/μL BSA, and 6 mM DTT). The compounds were dispensed on a 384 well Diamond Well Plate (Axigen, Cat #P-384-120SQ-C-S) using the Biomek FX liquid handling system at 100× solutions of compounds in DMSO. 2× PTPN2 (final concentration 0.004 ng/μL) was prepared in 1× Assay buffer and 25 μL of mixture per well was added into Reaction plate (Optiplate, black, Perkin Elmer, Cat #6007270). Add 25 μL of 1× buffer to Ctrl- (Substrate w/o PTPN2) wells followed by centrifugation at 100 g for 1 min. Next step the Compounds were added to Reaction plate using Biomek station via following steps: 3 ul of 100× compounds (in DMSO) were mixed with 27 μL of Assay Buffer, then 5 μL of this mixture was added to Reaction plate with 25 μL of PTPN2 Mix. Plates were centrifuged for 1 min at 100 g and incubated for another 10 minutes at room temperature. Finally, 20 μL of 2.5× Substrate (DiFUMP, Invitrogen™ Cat #D6567) mix was added into appropriate wells of Reaction plate to the final concentration of 2 μM, plate was centrifuged at 100 g for 1 min followed by incubation at RT for 60 min, and the Fluorescence Intensity was measured using a Microplate Reader (ClarioStar Plus, excitation 360 nm, emission 450 nm). The % inhibition was then used to calculate the IC50 values. The IC50 values are shown in Table A1, wherein “A” corresponds to IC50<5.0 nm, “B” corresponds to 5.0 nm≤IC50<10.0 nm, “C” corresponds to 10.0 nm≤IC50<50.0 nm, “D” corresponds to 50.0 nm≤IC50<100.0 nm, and “E” corresponds to 100.0 nm≤IC50<500.0 nm, and “F” corresponds to 500.0 nm≤IC50.

[1] = test system: B16F10 mouse melanoma cells; assay: Tumor cells B16F10 cellular growth IFNγ-induced inhibition assay (CellTiter-Glo); type: cell-based; details: for IC50: B16-F10, 72 h, 3 days incubation; for inhibition at 100 µM: B16-F10, B16F10, 100 μM compound
Description: B16F10 mouse melanoma cells (ATCC Cat #CRL-6475) were seeded at a density of 500 cells per well in a 384-well clear bottom plate (Corning Cat #3712, Corning, N.Y.) in 40 μL total volume of DMEM+10% FBS (PanEco Cat #C420, Russia and Sigma Cat #F4135, St. Louis, Mo.). Cells were allowed to adhere overnight at 37° C., 5% CO2. On the following day, 250× solutions of compounds in DMSO (Sigma Cat #D2650) were prepared into […] plate (Diamond Well Plate, Axigen, Cat #P-384-120SQ-C-S) (final concentration of 1×) and DMSO only controls were included. Dilution Plate (Diamond Well Plate (Axigen, Cat #P-384-120SQ-C-S) was prepared by adding 49 μL of culture medium per well: half of the plate with culture medium only, half with culture medium+IFNγ (5 ng/ml). A 1 μL aliquot of 250× compounds ([…] plate) was added to 49 μL of culture medium (Dilution plate), then a 10 μL aliqut of the mixture was transferred to Reaction plate with 40 μL of cells followed by centrifugation at 240 g for 1 min. After 3 days of incubation, 10 μL of CellTiter-Glo (Promega) was added to the cells, plates were centrifuged at 240 g for 1 min, and luminescence signal was measured. For each compound, the percent growth inhibition at every compound dose level was calculated relative to the “DMSO/with IFNγ” control and used to determine the IC50.

[2] = B16F10, + IFNγ, read-out: IC50 + IFNγ
[3] = B16F10, no IFNγ, read-out: IC50 no IFNγ
[4] = + IFNγ, read-out: % Growth Inhibition at 100 μM + IFNγ
[5] = no IFNγ, read-out: % Growth Inhibition at 100 μM no IFNγ

T1 sequence (P17706 with tags, fused parts or gaps): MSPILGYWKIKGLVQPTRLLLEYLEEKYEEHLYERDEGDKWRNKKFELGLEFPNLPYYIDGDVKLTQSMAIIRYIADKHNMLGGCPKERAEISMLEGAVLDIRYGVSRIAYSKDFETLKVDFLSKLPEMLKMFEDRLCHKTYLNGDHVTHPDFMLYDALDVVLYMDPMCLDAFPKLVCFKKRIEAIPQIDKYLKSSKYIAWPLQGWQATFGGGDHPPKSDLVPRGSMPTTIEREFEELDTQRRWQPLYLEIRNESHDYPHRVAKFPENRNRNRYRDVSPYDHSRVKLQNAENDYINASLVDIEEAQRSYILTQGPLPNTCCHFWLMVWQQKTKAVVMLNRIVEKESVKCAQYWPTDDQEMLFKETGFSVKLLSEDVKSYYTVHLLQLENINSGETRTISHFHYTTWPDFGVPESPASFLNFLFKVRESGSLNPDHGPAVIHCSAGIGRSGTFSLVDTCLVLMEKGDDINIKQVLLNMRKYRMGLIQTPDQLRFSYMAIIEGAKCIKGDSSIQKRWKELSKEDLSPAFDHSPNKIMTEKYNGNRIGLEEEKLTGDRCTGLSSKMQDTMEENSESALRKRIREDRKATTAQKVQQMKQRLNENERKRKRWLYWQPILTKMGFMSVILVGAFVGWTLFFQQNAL

SMILES	IC50 (GST-tagged PTPN2 protein) [µM]	IC50 [1, 2] [µM]	IC50 [1, 3] [µM]	inhibition at 100 µM [1, 4] [%]	inhibition at 100 µM [1, 5] [%]
COc1ccc(NC(=O)Nc2cc(O)c(N3CC(=O)NS3(=O)=O)c(F)c2)cc1 [Example 37, 1-[4-(1,1-dioxido-4-oxo-1,2,5-thiadiazolidin-2-yl)-3-fluoro-5-hydroxyphenyl]-3-(4-methoxyphenyl)urea]	< 0.005	≥ 100	≥ 100	10 to 50	10 to 50
Cc1ccccc1NC(=O)Nc1cc(O)c(N2CC(=O)NS2(=O)=O)c(F)c1 [Example 39, 1-[4-(1,1-dioxido-4-oxo-1,2,5-thiadiazolidin-2-yl)-3-fluoro-5-hydroxyphenyl]-3-(2-methylphenyl)urea]	0.01 to 0.05	50 to 100	≥ 100	50 to 75	10 to 50
O=C1CN(c2c(O)cc(NC(=O)Nc3ccc(C(F)(F)F)cc3)cc2F)S(=O)(=O)N1 [Example 41, 1-[4-(1,1-dioxido-4-oxo-1,2,5-thiadiazolidin-2-yl)-3-fluoro-5-hydroxyphenyl]-3-[4-(trifluoromethyl)phenyl]urea]	0.005 to 0.01	50 to 100	≥ 100	50 to 75	10 to 50
Cc1cccc(NC(=O)Nc2cc(O)c(N3CC(=O)NS3(=O)=O)c(F)c2)c1 [Example 42, 1-[4-(1,1-dioxido-4-oxo-1,2,5-thiadiazolidin-2-yl)-3-fluoro-5-hydroxyphenyl]-3-(3-methylphenyl)urea]	< 0.005	≥ 100	≥ 100	10 to 50	10 to 50
O=C1CN(c2c(O)cc(NC(=O)NC3CCN(S(=O)(=O)Cc4ccccc4Cl)CC3)cc2F)S(=O)(=O)N1 [Example 45, 1-{1-[(2-chlorobenzyl)sulfonyl]piperidin-4-yl}-3-[4-(1,1-dioxido-4-oxo-1,2,5-thiadiazolidin-2-yl)-3-fluoro-5-hydroxyphenyl]urea]	0.005 to 0.01	≥ 100	≥ 100	10 to 50	10 to 50
O=C1CN(c2c(O)cc(NC(=O)Nc3cccc(Cl)c3)cc2F)S(=O)(=O)N1 [Example 46, 1-(3-chlorophenyl)-3-[4-(1,1-dioxido-4-oxo-1,2,5-thiadiazolidin-2-yl)-3-fluoro-5-hydroxyphenyl]urea]	< 0.005	≥ 100	≥ 100	10 to 50	10 to 50
O=C1CN(c2c(O)cc(NC(=O)Nc3ccc(Cl)cc3)cc2F)S(=O)(=O)N1 [Example 47, 1-(4-chlorophenyl)-3-[4-(1,1-dioxido-4-oxo-1,2,5-thiadiazolidin-2-yl)-3-fluoro-5-hydroxyphenyl]urea]	< 0.005	50 to 100	≥ 100	50 to 75	10 to 50
O=C1CN(c2c(O)cc(NC(=O)Nc3ccccc3Cl)cc2F)S(=O)(=O)N1 [Example 48, 1-(2-chlorophenyl)-3-[4-(1,1-dioxido-4-oxo-1,2,5-thiadiazolidin-2-yl)-3-fluoro-5-hydroxyphenyl]urea]	0.005 to 0.01	≥ 100	≥ 100	10 to 50	10 to 50
O=C1CN(c2c(O)cc(NC(=O)NC3CCN(S(=O)(=O)c4ccccc4Cl)CC3)cc2F)S(=O)(=O)N1 [Example 51, 1-{1-[(2-chlorophenyl)sulfonyl]piperidin-4-yl}-3-[4-(1,1-dioxido-4-oxo-1,2,5-thiadiazolidin-2-yl)-3-fluoro-5-hydroxyphenyl]urea]	< 0.005	≥ 100	≥ 100	10 to 50	10 to 50
O=C1CN(c2c(O)cc(NC(=O)Nc3ccc(F)cc3)cc2F)S(=O)(=O)N1 [Example 53, 1-[4-(1,1-dioxido-4-oxo-1,2,5-thiadiazolidin-2-yl)-3-fluoro-5-hydroxyphenyl]-3-(4-fluorophenyl)urea]	0.005 to 0.01	≥ 100	≥ 100	10 to 50	10 to 50
O=C1CN(c2c(O)cc(NC(=O)Nc3cccc(F)c3)cc2F)S(=O)(=O)N1 [Example 54, 1-[4-(1,1-dioxido-4-oxo-1,2,5-thiadiazolidin-2-yl)-3-fluoro-5-hydroxyphenyl]-3-(3-fluorophenyl)urea]	< 0.005	10 to 50	≥ 100	50 to 75	10 to 50
O=C1CN(c2c(O)cc(NC(=O)Nc3ccccc3C(F)(F)F)cc2F)S(=O)(=O)N1 [Example 55, 1-[4-(1,1-dioxido-4-oxo-1,2,5-thiadiazolidin-2-yl)-3-fluoro-5-hydroxyphenyl]-3-[2-(trifluoromethyl)phenyl]urea]	0.005 to 0.01	≥ 100	≥ 100	10 to 50	10 to 50
O=C1CN(c2c(O)cc(NC(=O)NC3CCCCC3)cc2F)S(=O)(=O)N1 [Example 56, 1-cyclohexyl-3-[4-(1,1-dioxido-4-oxo-1,2,5-thiadiazolidin-2-yl)-3-fluoro-5-hydroxyphenyl]urea]	< 0.005	< 5	≥ 100	75 to 100	10 to 50
O=C1CN(c2c(O)cc(NC(=O)NCC3CCCO3)cc2F)S(=O)(=O)N1 (stereo not drawn) [Example 57, 1-[4-(1,1-dioxido-4-oxo-1,2,5-thiadiazolidin-2-yl)-3-fluoro-5-hydroxyphenyl]-3-(tetrahydrofuran-2-ylmethyl)urea]	0.01 to 0.05	10 to 50	≥ 100	50 to 75	10 to 50
COCCCNC(=O)Nc1cc(O)c(N2CC(=O)NS2(=O)=O)c(F)c1 [Example 58, 1-[4-(1,1-dioxido-4-oxo-1,2,5-thiadiazolidin-2-yl)-3-fluoro-5-hydroxyphenyl]-3-(3-methoxypropyl)urea]	0.01 to 0.05	5 to 10	≥ 100	75 to 100	10 to 50
COc1ccc(NC(=O)Nc2cc(O)c(N3CC(=O)NS3(=O)=O)c(F)c2)cc1OC [Example 59, 1-(3,4-dimethoxyphenyl)-3-[4-(1,1-dioxido-4-oxo-1,2,5-thiadiazolidin-2-yl)-3-fluoro-5-hydroxyphenyl]urea]	< 0.005	10 to 50	≥ 100	50 to 75	10 to 50
CC(C)CCNC(=O)Nc1cc(O)c(N2CC(=O)NS2(=O)=O)c(F)c1 [Example 62, 1-[4-(1,1-dioxido-4-oxo-1,2,5-thiadiazolidin-2-yl)-3-fluoro-5-hydroxyphenyl]-3-(3-methylbutyl)urea]	0.005 to 0.01	< 5	≥ 100	75 to 100	10 to 50
COc1ccc(CNC(=O)Nc2cc(O)c(N3CC(=O)NS3(=O)=O)c(F)c2)cc1 [Example 63, 1-[4-(1,1-dioxido-4-oxo-1,2,5-thiadiazolidin-2-yl)-3-fluoro-5-hydroxyphenyl]-3-(4-methoxybenzyl)urea]	0.01 to 0.05	10 to 50	≥ 100	75 to 100	10 to 50

Source: patent US20240262801A1, “COMPOUNDS HAVING 5-(2-FLUORO-6-HYDROXYPHENYL)-1,2,5-THIADIAZOLIDIN-3-ONE 1,1-DIOXIDE AS INHIBITORS OF PROTEIN KINASE PHOSPHATASE ENZYMES” (Ness Therapeutics, Inc., priority 2021, published 2024)
